Structures can show the parent of a compound that is named as a salt.
Columns and labels:
Conditions in all cases: 72 h
[1] = system: Caco-2; test: cell viability relative to DMSO; higher = less toxic
[2] = system: Calu-3; test: as above
[3] = system: HepG2; test: as above
[4] = system: U2OS; test: as above
[5] = system: Vero E6; test: as above
[6] = system: Caco-2; test: relative viability EC50 (midpoint between 100% and the lowest measured viability); higher = less toxic
[7] = system: Calu-3; test: as above
[8] = system: HepG2; test: as above
[9] = system: U2OS; test: as above
[10] = system: Vero E6; test: as above
[11] = system: Caco-2; test: drug sensitivity score (DSS) for viability; higher = more toxic; extreme values may be limits of the assay
[12] = system: Calu-3; test: as above
[13] = system: HepG2; test: as above
[14] = system: U2OS; test: as above
[15] = system: Vero E6; test: as above

| SMILES | cell viability ([1]; 1 nM) | cell viability ([1]; 10 nM) | cell viability ([1]; 100 nM) | cell viability ([1]; 1000 nM) | cell viability ([1]; 10000 nM) | cell viability ([2]; 1 nM) | cell viability ([2]; 10 nM) | cell viability ([2]; 100 nM) | cell viability ([2]; 1000 nM) | cell viability ([2]; 10000 nM) | cell viability ([3]; 1 nM) | cell viability ([3]; 10 nM) | cell viability ([3]; 100 nM) | cell viability ([3]; 1000 nM) | cell viability ([3]; 10000 nM) | cell viability ([4]; 1 nM) | cell viability ([4]; 10 nM) | cell viability ([4]; 100 nM) | cell viability ([4]; 1000 nM) | cell viability ([4]; 10000 nM) | cell viability ([5]; 1 nM) | cell viability ([5]; 10 nM) | cell viability ([5]; 100 nM) | cell viability ([5]; 1000 nM) | cell viability ([5]; 10000 nM) | relative viability EC50 [6] | relative viability EC50 [7] | relative viability EC50 [8] | relative viability EC50 [9] | relative viability EC50 [10] | drug sensitivity score [11] | drug sensitivity score [12] | drug sensitivity score [13] | drug sensitivity score [14] | drug sensitivity score [15] |
| --- | --- | --- | --- | --- | --- | --- | --- | --- | --- | --- | --- | --- | --- | --- | --- | --- | --- | --- | --- | --- | --- | --- | --- | --- | --- | --- | --- | --- | --- | --- | --- | --- | --- | --- | --- |
| O=C1CC[C@@]2(O)[C@H]3Cc4ccc(O)c5c4[C@@]2(CCN3CC2CC2)[C@H]1O5 [NALTREXONE HYDROCHLORIDE] | 107% | 99% | 95.3% | 99.1% | 90% | 97.3% | 100% | 101% | 99.2% | 99% | 93.8% | 110% | 102% | 95.1% | 92.1% | 102% | 97.2% | 99.8% | 100% | 101% | 98.1% | 106% | 100% | 103% | 103% | > 10 µM | > 10 µM | > 10 µM | > 10 µM | > 10 µM | 0 | 0 | 0 | 0 | 0 |
| N=C(NCCC[C@H](N)C(=O)O)N[N+](=O)[O-] [NG-nitro-arginine] | 92.7% | 88.8% | 106% | 84.2% | 89.4% | 93.5% | 106% | 91.7% | 93.7% | 94.6% | 96.7% | 101% | 95.2% | 101% | 95.2% | 104% | 95.6% | 101% | 93.2% | 97.9% | 104% | 101% | 103% | 101% | 92.8% | > 10 µM | > 10 µM | > 10 µM | > 10 µM | > 10 µM | 0 | 0 | 0 | 0 | 0 |
| Nc1nc(OCC2CCCCC2)c2nc[nH]c2n1 [NU-2058] | 98.4% | 94.6% | 96.2% | 96.2% | 90.3% | 92.4% | 106% | 97.2% | 109% | 105% | 120% | 106% | 98.3% | 104% | 86.8% | 96.2% | 103% | 94.6% | 95.6% | 96% | 103% | 97.6% | 98.2% | 102% | 99.7% | > 10 µM | > 10 µM | > 10 µM | > 10 µM | > 10 µM | 0 | 0 | 0.1 | 0 | 0 |
| O=C(Nc1cc2cc[nH]c2cn1)c1ccccc1 [OAC1] | 102% | 97% | 100% | 85.6% | 77.3% | 99.8% | 96.8% | 103% | 102% | 89.3% | 104% | 116% | 101% | 113% | 80.8% | 105% | 95.8% | 101% | 93.3% | 83.3% | 97.1% | 99.7% | 94.3% | 99.1% | 86.2% | > 10 µM | > 10 µM | > 10 µM | > 10 µM | > 10 µM | 2.3 | 0 | 0.3 | 1 | 0.2 |
| COc1cccc2cc(-c3nc([C@H]4CC[C@H](C(=O)O)CC4)n4ncnc(N)c34)[nH]c12 [OSI-027] | 98.5% | 100% | 86.4% | 56.7% | 26.3% | 92.4% | 100% | 70.6% | 33.7% | 26.3% | 112% | 106% | 102% | 48.8% | 28.4% | 92.5% | 100% | 92.3% | 57.2% | 17.2% | 102% | 103% | 98.3% | 80.1% | 39.7% | 0.603 µM | 0.145 µM | 0.693 µM | 0.903 µM | 1.33 µM | 9.9 | 15.9 | 9.9 | 9.7 | 6.2 |
| CC(C)n1nc(-c2cc3cc(O)ccc3[nH]2)c2c(N)ncnc21 [PP242] | 104% | 88.9% | 80.4% | 41.4% | 31.3% | 107% | 94.2% | 79.6% | 26.5% | 20.1% | 100% | 121% | 90.2% | 50% | 19.8% | 99.2% | 99% | 96% | 56.1% | 16.4% | 107% | 105% | 96.2% | 67.9% | 15.9% | 0.208 µM | 0.203 µM | 0.652 µM | 0.927 µM | 1.26 µM | 13.1 | 16 | 10.8 | 9.8 | 8.7 |
| COc1ccccc1-c1c[nH]c2ncc(-c3cncc(C(=O)N(C)C)c3)cc12 [PPY-A] | 88.4% | 119% | 102% | 106% | 102% | 108% | 96.4% | 95.3% | 115% | 126% | 120% | 96.9% | 92.1% | 114% | 99.7% | 95.4% | 112% | 101% | 101% | 96.4% | 95.4% | 100% | 100% | 101% | 112% | > 10 µM | > 10 µM | > 10 µM | > 10 µM | > 10 µM | 0 | 0 | 0 | 0 | 0 |
